# Where two headings read alike, the source gives them in different places.
# Key:
# Test in all cases: Antimicrobial activity, Heart Infusion Agar Dilution Method (pH 7.2)
# Type in all cases: cell-based
# Escherichia coli Juhl = system: Escherichia coli Juhl
# [1] = system: Klebsiella pneumoniae Y-60; conditions: Y60
# Proteus mirabilis 1287 = system: Proteus mirabilis 1287
# Escherichia coli NIHJC-2 = conditions: NIHJC2
# [2] = system: Pseudomonas aeruginosa 145
# Text: (§1) Antimicrobial activities of the compound obtained in Reference Example 9 are as follows. Heart Infusion Agar Dilution Method (pH 7.2) is used.
# Proteus vulgaris 6897 = system: Proteus vulgaris 6897
# Text: as §1
# Proteus morganii KY 4298 = system: Proteus morganii KY 4298
# Text: as §1
# [3] = system: Staphylococcus epidermidis
# Text: as §1
# Serratia marcescens T-55 = conditions: T55
# Text: as §1
# [4] = system: Staphylococcus aureus Smith
# Text: as §1
# Proteus rettgeri KY 4289 = conditions: Providencia rettgeri, KY4289
# Text: as §1
# Pseudomonas putida 264 = system: Pseudomonas putida 264
# Text: as §1
# [5] = system: Escherichia coli GN2411-5
# Text: as §1
# [6] = system: Klebsiella pneumoniae 8045
# [7] = system: Pseudomonas aeruginosa #1
# Text: as §1
# [8] = system: Staphylococcus aureus 209-P
# Text: as §1
# Serratia marcescens T-26 = system: Serratia marcescens T-26
# [9] = Morganella morganii, KY4298, read-out: MIC
MIC (Escherichia coli Juhl) [µg/mL],MIC [1] [µg/mL],MIC (Proteus mirabilis 1287) [µg/mL],MIC (Escherichia coli NIHJC-2) [µg/mL],MIC ([2]; read-out: MIC) [µg/mL],MIC (Proteus vulgaris 6897) [µg/mL],MIC (Proteus morganii KY 4298; [9]) [µg/mL],MIC ([3]; read-out: MIC) [µg/mL],MIC (Serratia marcescens T-55) [µg/mL],MIC [4] [µg/mL],MIC (Proteus rettgeri KY 4289) [µg/mL],MIC (Pseudomonas putida 264; read-out: MIC) [µg/mL],MIC [5] [µg/mL],MIC [6] [µg/mL],SMILES,also measured
≤ 0.01,≤ 0.01,0.05,0.02,6.25,≤ 0.01,≤ 0.01,25,0.05,12.5,≤ 0.01,0.02,≤ 0.01,≤ 0.01,"CO/N=C(\C(=O)N[C@@H]1C(=O)N2C(C(=O)O)=C[C@@H](O)C[C@H]12)c1csc(N)n1 [A, (4S,6R,7S)-7-[2-(2-amino-4-thiazolyl)-2-syn-methoxyiminoacetamido]-4-hydroxy-1-azabicyclo[4,2,0]oct-2-en-8-on-2-carboxylic acid]",–
–,3.12,12.5,–,> 100,25,> 100,0.78,> 100,0.78,25,> 100,0.78,–,"Cc1nnc(SCC2=C(C(=O)O)N3C(=O)[C@@H](NC(=O)Cn4cnnn4)[C@H]3SC2)s1 [Cefazolin, reference compound]","MIC ([7]; read-out: MIC): > 100 µg/mL; MIC [8]: 0.02 µg/mL; MIC (Serratia marcescens T-26; T26, read-out: MIC): > 100 µg/mL"
–,–,–,–,–,–,–,–,–,–,–,–,–,–,"N[C@@H](C(=O)NC1C(=O)N2C(C(=O)O)=CC(O)CC12)c1ccccc1 (stereo in doubt) [C, cis-7β-[(R)-2-phenylglycinamido]-4α-hydroxy-1-azabicyclo[4,2,0]oct-2-en-8-on-2-carboxylic acid]",MIC [2]: > 100 µg/mL; MIC (Proteus morganii KY 4298): 12.5 µg/mL; MIC [3]: 12.5 µg/mL; MIC [7]: > 100 µg/mL; MIC (Pseudomonas putida 264): 12.5 µg/mL; MIC (Serratia marcescens T-26): 100 µg/mL
0.05,0.02,0.1,0.05,12.5,0.1,0.05,50,0.02,25,< 0.01,0.02,0.02,0.02,"CO/N=C(\C(=O)N[C@@H]1C(=O)N2C(C(=O)O)=C[C@@H](O)C[C@H]12)c1csc(N)n1 (relative stereo) [B, (±)-cis-7β-[2-(2-amino-4-thiazolyl)-2-syn-methoxyiminoacetamido]-4α-hydroxy-1-azabicyclo[4,2,0]oct-2-en-8-on-2-carboxylic acid]",–

# Source: patent US4302540A, “Process of producing optically active cephalosporin analogs by enzyme selective deacylation” (Kyowa Hakko Kogyo Co., Ltd., priority 1979, dated 1981)
